Reference: patent publication US4753928A, “Process for obtaining sexual products from mammals suitable for natural or artificial fertilization” (INNOFINANCE Altalanos Innovacios Pengintezet, priority 1985, dated 1988)
Values joined by “and” are separate entries in the source; they are usually repeats but may differ in a detail not shown here. Equal values may be shown once. Where a SMILES comes first, the peptide text is derived from it. [ ]: non-standard residue; d: D form. pGlu = O=C1CC[C@@H](C(=O)O)N1

How the values were obtained:
Siberian tiger male = assay: Treating Siberian tiger infertile owing to degenerated spermatogeny; type: in vivo
Text: A 8-year old Siberian tiger male of 120 kg and belonging to Zoo has lived with its mate for three years. Regular copulations took place on oestrus of the female, but no offspring was produced in any year. The possiblity that the female was at fault had to be excluded because previously she had pregnancy from an other male and the young ones born were reared as well. From the male in question through electrical means ejaculate was obtained under narcosis and it was established that it was very thin, 4-5 degenerate, vibrating sperms could be seen in each field of vision. Forms of degeneration were characteristic of the younger phases of spermiogenesis. Thereafter the animal was treated oncy weekly intramuscularly with a 100 μg dose of D-Phe^6, Trp^7, Leu^8 -GnRH diluted in normal saline solution of 1 ml, using the compressed air injection technique. The male was kept with its mate and they copulated regularly during the treatments. […] Calculating from the time of birth, fertile copulation ensued 40-50 days following the first treatment.

[1] = test system: ovary of domestic cat kittens; assay: Stimulating function of ovary in domestic cat (D-Phe6,Trp7,Leu8-GnRH); type: in vivo; details: 100 μg i.m. every second day, three times; 45 days old kittens
Protocol: 5 kittens each weighing 0.3 kg and being 45 days old were treated with D-Phe^6, Trp^7, Leu^8 -GnRH analogue in such a way that prior to treatments the left side ovary was removed under narcosis. Then the […] were treated every second day, three times in all with doses of 100 μg each of the active ingredient diluted in normal saline solution administered intramuscularly. After treatment the remaining right side ovaries were removed, examined visually, then, after fixing, hystological examination was carried out.
Ovaries removed prior to treatment were quite homogeneous, butter-yellow in colour, growing follicle could not be detected in them either visually or hystologically. Following treatment 7-8 corpora haemorrhagica and several (not countable) growing follicles were found.

female wild cats = assay: Cancelling seasonal unoestrus in adult wild cat; type: in vivo, Felis silvestris; details: after 4 days; i.m. 100 μg then 500 μg two hours later, repeated after 48 hours
Protocol: 2 female wild cats from Zoo, with an average weight of 6 kg and having under normal conditions a cycle between February and March, were treated with D-Phe^6, Gln^8, desGly^10 -GnRH ethyl-amide. Before treatments began, abdominal cavity was opened under narcosis in order to see the condition of both ovaries. After sewing up the abdomen, animals were treated every second day, four times in total through intramuscular injection of the active ingredient diluted in normal saline solution. A two-hour interal was kept between the first and second injection; the first dose was 100 μg, the second one 500 μg. This was followed after 48 hours by the third dose of 100 μg, then two hours later by the fourth dose of 500 μg. On the 0., 2., 4. and 8th day of the treatment abdomen was opened under narcosis and changes in condition of the ovaries were visually evaluated. After treatment both ovaries were removed, fixed and their hystological evaluation was carried out.
On the 0. day of the treatment on left side ovary of both animals 3-4 supposed secondary follicles and 1 degenerated old corpus luteum, while on the right side ovary 5-6 supposed secondary follicles could be seen. […]

female lambs = assay: Inducing super-ovulation in infant sheep; type: in vivo; details: 10 μg twice daily 5 days i.m., 70 μg on 6th day; 50-day old lambs
Protocol: 10 50-day old female lambs were administered each intramuscularly twice daily for 5 days 10 μg doses each of D-Phe^6, Gln^8, desGly^10 -GnRH ethylamide. […] Evaluation of treated and untreated control animals was carried out with the aid of laparoscopy. The results were similar to those outlined in Examples 1 to 4.

[2] = test system: intact ovaries in organ culture; assay: Production of ova in cattle in vitro from ovary organ culture; type: cell-based; details: 10^-9 -10^-8 g/ml; spontaneous ovulations and punctured ova
Protocol: Cattle in slaughter-house was stunned and bled, after which intact ovaries were removed within 30-55 minutes. Then in laboratory conditions they were placed in […]. To this culture liquid D-Phe^6, Gln^8, desGly^10 -GnRH ethyl-amide was given in a concentration of 10^-9 -10^-8 g/ml. Ovary stock took 16 to 43 hours to ovulate in organ culture. Out of the spontaneous ovulations of in vitro ovaries and from ova obtained with puncturing 85% were capable to continue meiosis (reductive cell division) and to be successfully fertilized in vitro by tractable sperms of cattle.

Bengalian tiger = assay: Stimulating normospermia to hyperspermia in Bengalian tiger; type: in vivo
Protocol: A 8-year old Bengalian tiger of a weight of 200 kg belonging to Zoo copulated regularly, its mate becoming pregnant regularly for years. With this knowledge, under narcosis and in the mating season sperm sample was taken electrically and it was established that the sample density reached 3, motility was 30% and quantity of ejaculate amounted to 0.2 ml. […] Deep freezing of such minute quantity of ejaculate, however, is for technical reasons not possible. In order to protect the animal and to avoid liver damage, narcosis can be repeated every four days at the most and kept on for 4-5 hours. Collecting of sperms this way is unaccomplishable. In our process the male was separated from the female and was treated daily for 12 days with 10 μg each of D-Phe^6, Gln^8, DesGly^10 -GnRH ethyl-amide which was diluted in 1 ml of normal saline solution and administered intramuscularly, using compressed air injection technique. On the 12th day, through electrical means the animal was ejaculated under narcosis twice with an hour time interval; in this way 1 ml and 0.8 ml of sperms were obtained. The two samples were combined and examined; a density of 4 was established, motility being 70%. Sperm samples were deep frozen and 21 doses suitable for artificial fertilization were prepared.

male orang-utan = assay: Treating aspermia caused by non-natural keeping in orang-utan; type: in vivo; details: 47th day
Text: A 18-year old, male orang-utan of a weight of ca. […] and belonging to Zoo came into captivity in its infancy. Till the treatment it had three owners. […] It has been living in its present location for the past 11 years, it had neither a companion of his own kind nor a mate. […] The Zoo has been contacted that in case the animal is of Bornean Sub-species and fertile, it would be purchased. […] A factor questioning fertility in the case-history was the absence of aggressiveness typical of the male primates and the ceasing of regular masturbation during hospitalization 5-6 years before. Sperm sample was taken from the animal under narcosis, using electrical means. In the ejaculate secretion of the side gonads was exclusively found, in three parts 1--1 droplet, altogether a quantity of 0.1 ml.
Thereafter the animal was treated twice weekly with a dose of 100 μg D-Phe^6, Gln^8, DesGly^10 -GnRH ethylamide, i.e. similarly to the method used in Example 11. During treatment movement of the animal became more live and active. This, however, could not be attributed to the growth of libido, since it could have been caused by the fear from firing airgun injector. Treatment was finished on the 47th day following the first shot and ejaculate was taken twice under renewed narcosis and one hour interval; in this way altogether 3.2 ml of sperms were obtained. Density of sperm was 3, motility 35%. Amount of degenerated sperms reached 20%, practically made up of entirely young development forms (neck and middle part plasma droplets).

[3] = test system: subordinate male chimpanzees; assay: Treating physiological oligospermia of chimpanzee; type: in vivo
Protocol: In our case, apart from sperm obtained from the dominant males, that was stored in sperm bank, we had to have expressly, for the purpose of insemination, sperm from the 4 subordinate males (all sexually mature). Before the treatment began, all animals were ejaculated under narcosis through electric shock method. Density and motility of the ejaculate was evaluated under microscope, then it was put under deep freeze probe (-196° C.). […] Thereafter male chimpanzees weighing 60 to 90 kilograms were administered intramuscularly 100 μg of D-Phe^6, Gln^8, desGly^10 -GnRH ethylamide diluted in 1 ml of normal saline solution using compressed air injection technique. […] Qualitative and quantitative characteristics of the ejaculates were similar to those obtained from the dominant male and to values published in technical literature.
After diluting the ejaculate in a 1:1 ratio, deep-freeze test was positive and the 60% motility decreased to only 45%. Sperms of this quality either fresh or in deep freeze are entirely suitable for the purposes of insemination.

infant calves = assay: Inducing super-ovulation in infant cattle; type: in vivo
Protocol: 8 65-old day infant calves were treated for 8 days, three times daily, with 2 μg of D-Phe^6, Gln^8, desGly^10 -GnRH ethylamide each. After a day of rest, on the 10th day 100 μg active ingredient was administered each intramuscularly. Following the last injection, ovaries from both sides were removed; generally 5-11 developed Graf-follicles were registered in each ovary. 50% of the follicles were already past the stage when tight to the touch, i.e. they were follicles just prior to ovulation.

`CC(C)C[C@H](NC(=O)[C@H](Cc1c[nH]c2ccccc12)NC(=O)[C@@H](Cc1ccccc1)NC(=O)[C@H](Cc1ccc(O)cc1)NC(=O)[C@H](CO)NC(=O)[C@H](Cc1c[nH]c2ccccc12)NC(=O)[C@H](Cc1c[nH]cn1)NC(=O)[C@@H]1CCC(=O)N1)C(=O)N1CCC[C@H]1C(=O)NCC(N)=O` [D-Phe^6, Trp^7, Leu^8 -GnRH] ([pGlu]HWSY[dF]WLPG-NH2) was tested, and the “pregnancy of mate / offspring” value (Siberian tiger male; 100 μg once weekly i.m.) was “The female became pregnant, producing three healthy offsprings”, the “time of fertile copulation following the first treatment” value (Siberian tiger male; calculated from time of birth) was 40 to 50 days and the “corpora haemorrhagica on remaining ovary” value [1] was 7-8.

For `CCNC(=O)[C@@H]1CCCN1C(=O)[C@H](CCC(N)=O)NC(=O)[C@H](CC(C)C)NC(=O)[C@@H](Cc1ccccc1)NC(=O)[C@H](Cc1ccc(O)cc1)NC(=O)[C@H](CO)NC(=O)[C@H](Cc1c[nH]c2ccccc12)NC(=O)[C@H](Cc1c[nH]cn1)NC(=O)[C@@H]1CCC(=O)N1` [D-Phe^6, Gln^8, desGly^10 -GnRH ethylamide] ([pGlu]HWSY[dF]LQP-NHEt), the “development of secondary follicles” value (female wild cats) was “all secondary follicles turned into Graf-follicles ovulated”, the “ovulations in each animal” value (female lambs) was 3-9 and the “ova capable to continue meiosis and to be fertilized in vitro” value [2] was 85%. The “density of combined sample” value (Bengalian tiger; 12th day) was 4, the sperm motility (Bengalian tiger; 12th day, combined sample) was 70% and the “sperm volume obtained per ejaculation” value (Bengalian tiger; 12th day, 10 μg daily i.m. for 12 days, two ejaculations one hour apart, 0.2 ml before treatment, Gln^8, DesGly^10 -GnRH ethyl-amide) was 1 mL and 0.8 mL. The “motility of remelting sperms” value (Bengalian tiger; after deep freezing) was 60%, the “doses suitable for artificial fertilization prepared” value (Bengalian tiger; deep frozen samples) was 21 and the degenerated sperms (male orang-utan) was 20%. The density of sperm (male orang-utan) was 3, the sperm motility (male orang-utan) was 35% and the “sperm volume obtained altogether” value (male orang-utan; 100 μg twice weekly, two ejaculations) was 3.2 mL. The “motility of ejaculate after deep freeze test” value ([3]; 4 weeks after first treatment) was “less than 10%”, the “young sperm formations in ejaculate” value ([3]; 4 weeks after first treatment, 100 μg i.m.) was 40-60% and the defective sperms ([3]; 60 days after first treatment) was “below 30%”. For the same compound, the sperm motility ([3]; 60 days after first treatment) was “exceeded 60%”, the “motility after deep-freeze test” value ([3]; 60 days, ejaculate diluted 1:1) was 45% and the “developed Graf-follicles in each ovary” value (infant calves; 2 μg three times daily 8 days, 100 μg i.m. on 10th day, 65-day old calves) was 5-11. For the same compound, the “follicles just prior to ovulation” value (infant calves; same treatment) was 50%.
